Experimental data published in publication PMC7582656, “The Hirudo Medicinalis Microbiome Is a Source of New Antimicrobial Peptides” (International Journal of Molecular Sciences, 2020).
Converted amounts (≈) assume the structure as drawn. “Also recorded” adds a separate entry of the source. Read-outs that look alike come from different tables or passages of the source. Where no end group is shown, it is not given here.

Legend:
[1] = test system: E. coli K12 substr MG1655; format: cell-based, Escherichia coli; conditions: two-fold serial dilution, 96-well plates, Mueller Hinton broth, triplicate
Description: (§1) The minimum inhibitory concentration (MIC) of peptides was determined by the standard microtiter dilution method, as performed previously. Briefly, the MIC was determined by growing the microorganisms in 96-well microtitration plates in the presence of a two-fold serial dilution of the peptides. […] Mueller Hinton broth (MHB, BD Difco, Thermo Fisher Scientific Inc., Waltham, MA, USA) was used for all cultures, including Bacillus subtilis 168HT, Staphylococcus aureus ST 88, Staphylococcus haemolyticus 527 (clinical isolate), and Escherichia coli K12 substr. MG1655 strains. Each experiment was performed in triplicate with positive (melittin (Merck Company Inc., Kenilworth, NJ, USA)) and negative (without peptide) inhibition controls.

[2] = test system: B. subtilis 168HT; format: cell-based, Bacillus subtilis
Description: as §1

[3] = test system: S. aureus ST 88; format: cell-based, Staphylococcus aureus
Description: as §1

[4] = test system: S. haemolyticus 527; format: cell-based, Staphylococcus haemolyticus
Description: as §1

[5] = test system: McCoy cells; experiment: LIVE/DEAD viability/cytotoxicity assay, fluorescent images; format: cell-based, mouse; conditions: 24 h
Description: (§2) The cytotoxicity of peptides towards the mouse fibroblast cell line McCoy was determined via the LIVE/DEAD™ Viability/Cytotoxicity Kit (Thermo Fisher Scientific Inc., Waltham, MA, USA) according to the manufacturer′s recommendations, as performed previously. […] Melittin was used as a negative control, and McCoy cells treated without peptides were used as a positive control. After peptide exposure, cells were washed and then stained with PBS containing calcein AM and ethidium homodimer–1 at concentrations of 0.3 and 1.25 μM, respectively, for 30 min at 37 °C. After staining, the cells were washed twice with PBS. The images were captured using an epifluorescence microscope with the respective filter cubes from 10 occasionally selected fields of view captured for each well with a 20× objective. Images were captured for FITC and TRITC channels. The numbers of cells in both channels were quantified with the ImageJ software (version 1.48; RSB).

[6] = test system: E. coli ATCC25922; conditions: ref Porto et al. [32]; cited from earlier work
From the text: According to numerous studies, the actions of AMPs on bacteria are diverse and appear to be dependent on the target and the peptide concentration. The speed of the antimicrobial effect of different AMPs can vary greatly.

[7] = test system: McCoy cells; experiment: Cytotoxicity by live/dead assay and lactate dehydrogenase assay together; format: cell-based, mouse; conditions: 24 and 48 h, peptide at 4x MIC, live/dead fluorescence imaging and LDH assay
Description: We applied two techniques: Fluorescence imaging of dead and living cells (live/dead viability/cytotoxicity assay, Table 3, Figure S2) and a colorimetric assay (lactate dehydrogenase assay, Figure S3).
as §2
The cytotoxicity of peptides was also measured by a lactate dehydrogenase (LDH) assay kit (Merck Company Inc., Kenilworth, NJ, USA) according to the manufacturer′s recommendations. Briefly, 100 μL of McCoy cells per well were seeded on 96-well culture plates at a density of 2 × 10^5 cells/mL and incubated for 24 h at 37 °C with peptides at a final concentration equal to 4× MIC. Melittin was used as a negative control, and McCoy cells treated without peptides were used as a positive control. The growth medium without peptides was used as blank absorbance readings. After the peptide treatment, the plate with cells was centrifuged for 10 min at 900 g, and 50 μL of medium from each well was transferred to another plate. Fifty microlitres of the prepared LDH kit solution were added to each well. All manipulations were performed in the dark. The absorbance of the wells was measured after 15 min incubation in the dark at wavelengths of 495 and 690 nm using a Multiscan Ascent microtiter plate reader (Thermo Fisher Scientific Inc., Waltham, MA, USA). The specific absorbance of each sample was calculated according to the equation:Absorbance = A495 nm (Test) − A495 nm (Blank) − A690 nm (Test)
The percentage of cell viability was recalculated according to the control values.

Molecule | MIC [1] | MIC ([2]; B. subtilis 168HT, two-fold serial dilution, 96-well plates, Mueller Hinton broth, triplicate) | MIC ([3]; S. aureus ST 88 (MRSA), two-fold serial dilution, 96-well plates, Mueller Hinton broth, triplicate) | MIC ([4]; S. haemolyticus 527 (clinical isolate), two-fold serial dilution, 96-well plates, Mueller Hinton broth, triplicate) | Cell Viability, % ([5]; McCoy cells, 37 °C, peptide at 4× MIC, calcein AM / ethidium homodimer-1 staining, fluorescent images, mean ± SD (n = 3)) | Time to kill E. coli ATCC25922 [6] | MIC ([2]; 168HT) | MIC ([3]; ST 88) | Cell Viability, % ([5]; 4 MIC) | Cytotoxicity (in words) [7] | MIC [4]; 527 | Time of lytic effect [6]
CC[C@H](C)[C@H](NC(=O)CN)C(=O)NCC(=O)N[C@@H](C)C(=O)N[C@H](C(=O)N[C@@H](CC(C)C)C(=O)N[C@@H](CCCCN)C(=O)N[C@H](C(=O)N[C@@H](CC(C)C)C(=O)N[C@H](C(=O)N[C@H](C(=O)NCC(=O)N[C@@H](CC(C)C)C(=O)N1CCC[C@H]1C(=O)N[C@@H](C)C(=O)N[C@@H](CC(C)C)C(=O)N[C@H](C(=O)N[C@@H](CO)C(=O)N[C@@H](Cc1c[nH]c2ccccc12)C(=O)N[C@H](C(=O)N[C@@H](CCCCN)C(=O)N[C@@H](CCCNC(=N)N)C(=O)N[C@@H](CCCCN)C(=O)N[C@@H](CCCNC(=N)N)C(=O)N[C@@H](CCC(N)=O)C(=O)N[C@@H](CCC(N)=O)C(N)=O)[C@@H](C)CC)[C@@H](C)CC)[C@@H](C)O)[C@@H](C)O)C(C)C)C(C)C [Melittin, melittin, reference compound] | 5.7 µM (≈ 16.2 µg/mL) | 1.5 µM (≈ 4.27 µg/mL) | 1.5 µM (≈ 4.27 µg/mL) | 5.7 µM (≈ 16.2 µg/mL) | 0.3 ± 0.1 % | 10 s | – | – | – | – | – | –
IGRHFKRRNSIWGICWF [pept_1303] | – | – | – | – | – | – | 14.8 µM | >100 µM | 25.1 ± 8.3 % | reduced the cell viability to a lesser but still severe degree | – | –
FLIGKAIKRKFCLRSVWNA-NH2 [pept_1545] | – | – | – | – | – | – | 7.2 µM | >100 µM | 98.7 ± 1.3% | did not exert any inhibition of cell growth even after 48 h; also recorded: did not cause cell death | – | –
IVKRFFRISYKLQSLKIIKGKRTFT [pept_84] | – | – | – | – | – | – | 5.3 µM | >100 µM | 11.2 ± 7.4 % | reduced the cell viability to a lesser but still severe degree | 5.3 µM | –
KKGKSFKQLHIIVHLVKSWLRTILTHI [pept_352] | – | – | – | – | – | – | 10 µM | 19.9 µM | 0.2 ± 0.1 % | strong cytotoxicity comparable to melittin | 10 µM | –
guavanin 2 | – | – | – | – | – | – | – | – | – | – | – | 10 min
VLIRGLIHMLRGG [pept_148] | – | – | – | – | – | – | 22.4 µM | >100 µM | 98.3 ± 0.9% | did not exert any inhibition of cell growth even after 48 h; also recorded: did not cause cell death | >100 µM | –
FVKILAKLVNYAKN [pept_970] | – | – | – | – | – | – | 19.8 µM | >100 µM | 2.7 ± 2.1 % | strong cytotoxicity comparable to melittin | >100 µM | –
